Source: US8920851B2, “Treatment of neurodegenerative diseases” (Velacor Therapeutics Pty Ltd, priority 2006, dated 2014)

Tests used:
PHF Tau = conditions: Balb/C Nu Nu male mice, single subcutaneous injection 300 μg per 200 μl PBS, 2 and 6 hours
Method: Lysates preparation and Immunoblotting: Cells were washed twice in cold PBS and were lysed in 150 μl of cold RIPA buffer (containing 10% glycerol, 20 mM Tris, 137 mM NaCl, 0.1% SDS, 0.05% IGEPAL, 1% Triton X-100, 2 mM EDTA, 10% NaV, 2% NaF and 4× protease inhibitor), similarly, brain tissues were homogenised in dry ice using mortar and pestle, and lysed in 150 μl RIPA buffer. Samples were incubated on ice for 30 minutes, followed by centrifugation at 13000 rpm/ 10 minutes/ 4° C. Supernantant was collected and protein estimation was calculated for each sample by using BCA reagent (Sigma). Equal amounts of protein were loaded into each lane of a 10% SDS-polyacrylamide gel. The proteins were transferred onto PVDF (Millipore) membranes and were blocked with 5% skim milk blotto for 2 hours. After blocking the membrane, primary antibodies: either anti-human PHF-Tau (AT100 at 1:200, AT180 at 1:1000, and AT270 at 1:2500) or anti-human Tau (HT-7 at 1:1000) were incubated overnight at 4° C. in 5% skim milk blotto. Prior to secondary antibody incubation, membranes were rinsed 3× followed by 3×5 minutes washed in Tris-Buffered Saline with 0.01% Tween at room temperature. […] Membranes were washed as described above and were detected by using Amersham ECL western blotting detection reagent (Amersham Bioscience, Buckinghamshire, UK). […]

PHF-Tau = conditions: 100 μM, 3 hours
Method: In Vitro: 2×10^5 SY5Y or BE2M17 cells were plated to each well in a Falcon 6-well plate, either over coated or uncoated surfaces, and were allowed to attached overnight at 5% CO2/37° C. in complete growth medium (as described above). […] Cells were cultured over Falcon 6-well plates with surfaces coated either with 0.1% gelatin (Sigma, St Louis, Mo., USA), matrigel (cat #354234, BD, NSW, Australia) or 0.5 μg/ml fibronectin (Sigma, St Louis, Mo., USA).
Lysates preparation and Immunoblotting: Cells were washed twice in cold PBS and were lysed in 150 μl of cold RIPA buffer (containing 10% glycerol, 20 mM Tris, 137 mM NaCl, 0.1% SDS, 0.05% IGEPAL, 1% Triton X-100, 2 mM EDTA, 10% NaV, 2% NaF and 4× protease inhibitor), similarly, brain tissues were homogenised in dry ice using mortar and pestle, and lysed in 150 μl RIPA buffer. Samples were incubated on ice for 30 minutes, followed by centrifugation at 13000 rpm/ 10 minutes/ 4° C. Supernantant was collected and protein estimation was calculated for each sample by using BCA reagent (Sigma). Equal amounts of protein were loaded into each lane of a 10% SDS-polyacrylamide gel. The proteins were transferred onto PVDF (Millipore) membranes and were blocked with 5% skim milk blotto for 2 hours. After blocking the membrane, primary antibodies: either anti-human PHF-Tau (AT100 at 1:200, AT180 at 1:1000, and AT270 at 1:2500) or anti-human Tau (HT-7 at 1:1000) were incubated overnight at 4° C. in 5% skim milk blotto. Prior to secondary antibody incubation, membranes were rinsed 3× followed by 3×5 minutes washed in Tris-Buffered Saline with 0.01% Tween at room temperature. Followed by 1 hour incubation of secondary antibody polyclonal goat anti-mouse (Dako, Denmark) coupled to horse radish peroxidase (HRP) at 1:10000 dilutions in 5% skim milk blotto/room temperature. Membranes were washed as described above and were detected by using Amersham ECL western blotting detection reagent (Amersham Bioscience, Buckinghamshire, UK). Membranes were stripped using 2% SDS/β-Mercaptoethanol stripping buffer and reprobed for tubulin (Promega) to confirm protein loading.

p70S6K = assay type: cell-based, human; conditions: PC3 cells; LY294002 50 μM 1 hour, sodium selenate 500 μM 1 hour, okadaic acid 500 nM
Method: 5×10^5 PC3 prostate carcinoma cells were plated per well of a 6-well plate, allowed to attach for 8 hours, then serum starved overnight. […] Equal amounts of whole cell lysates (75 μg) were resolved by SDS-PAGE, and the level of p70S6K phosphorylation determined by immunoblot analysis with an antibody that specifically recognizes the p70S6K protein when phosphorylated on Thr389. Comparison is made with the protein loading control β tubulin.

[1] = molecular target: T1, human PP2A A-C heterodimer (Homo sapiens, UniProt P67775); assay type: biochemical
T1 construct: purified PP2A A-C dimer purified from human red blood cells; purchased Upstate 14-111 (lot #28002); host or cells: human red blood cells (native purification)
Method: In initial assays a chemical substrate of phosphatase enzymatic action, para-nitrophennylphosphate (pNPP) was used, which following hydrolysis of the phosphate moiety generates para-nitrophenol, an intensely yellow chromogen which is soluble under alkaline conditions. […] Absorbance of each sample was measured in duplicate at 405 nm with 590 nm as a reference. PP2A activity was calculated using the following equation: activity=(sample vol in liters)×A405/1.78×104M^−1 cm^−1 (extinction coefficient)×0.25 cm×15 minutes×0.05 U enzyme Data is presented as mean relative phosphatase activity ±SEM from at least three independent experiments.
Para-nitrophennylphosphate (PNPP) is a chemical substrate of phosphatase enzymes, which following hydrolysis of the phosphate moiety generates para-nitrophenol, an intensely yellow chromogen, soluble under alkaline conditions. In assays measuring relative phosphatase activity, 0.05 U of purified PP2A was mixed with 5 μl of 40 mM NiCl2 and 5 μl of BSA solution (5 mg/ml) in a microcentrifuge tube. Various treatments were added as indicated, and the volume adjusted to 80 μl with pNPP assay buffer. Samples were pre-incubated at 37° C. for 15 min. pNPP substrate was freshly prepared before each assay by dissolving 1.5 mg/ml pNPP in 50 mM Tris-HCl, pH 7.0. To start the phosphatase reaction, 120 μl of pNPP substrate was added, and samples incubated for a further 15 min at 37° C. Absorbance of each sample was measured in duplicate at 405 nm with 590 nm as a reference. PP2A activity was calculated using the following equation: activity=(Sample volume in liters)×A405/1.78×10^4M^−1cm^−1 (Extinction coefficient)×0.25 cm×15 min×0.05 U enzyme.

[2] = BE2M17 cells on fibronectin, plastic (uncoated) and matrigel

T1 sequence (P67775 whole entry): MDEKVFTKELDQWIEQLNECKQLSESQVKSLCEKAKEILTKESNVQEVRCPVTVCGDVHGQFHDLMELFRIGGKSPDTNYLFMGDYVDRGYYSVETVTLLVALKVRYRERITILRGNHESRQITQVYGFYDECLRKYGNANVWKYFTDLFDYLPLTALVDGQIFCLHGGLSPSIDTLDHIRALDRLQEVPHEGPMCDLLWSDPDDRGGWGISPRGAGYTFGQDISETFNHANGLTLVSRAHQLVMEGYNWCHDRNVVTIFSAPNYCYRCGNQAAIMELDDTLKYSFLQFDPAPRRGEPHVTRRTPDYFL
T1 sequence (P30153 2-589 partner limits assumed): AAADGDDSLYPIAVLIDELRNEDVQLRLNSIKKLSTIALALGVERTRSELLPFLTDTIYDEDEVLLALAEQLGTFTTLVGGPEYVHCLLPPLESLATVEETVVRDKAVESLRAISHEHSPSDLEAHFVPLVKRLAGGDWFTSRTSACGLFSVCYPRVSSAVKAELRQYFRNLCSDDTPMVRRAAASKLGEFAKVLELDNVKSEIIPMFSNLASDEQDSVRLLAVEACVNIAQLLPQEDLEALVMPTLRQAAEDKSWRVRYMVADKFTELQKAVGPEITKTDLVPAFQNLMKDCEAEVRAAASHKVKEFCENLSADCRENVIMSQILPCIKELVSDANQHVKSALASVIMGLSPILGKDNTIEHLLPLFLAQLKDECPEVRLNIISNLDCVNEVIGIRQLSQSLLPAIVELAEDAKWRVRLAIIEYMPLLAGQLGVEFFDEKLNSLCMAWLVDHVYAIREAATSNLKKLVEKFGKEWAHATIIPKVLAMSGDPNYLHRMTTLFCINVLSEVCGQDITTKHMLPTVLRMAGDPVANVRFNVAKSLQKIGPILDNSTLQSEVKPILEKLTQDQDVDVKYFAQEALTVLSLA

O=[Se](=O)(O)O [sodium selenate]
PHF Tau signal in brain lysate, clone AT100 (60 kDa) (PHF Tau): PHF Tau signal appeared to be reduced | PHF Tau signal in brain lysate, clone AT180 (60 kDa) (PHF Tau): PHF Tau signal clearly reduced | PHF-Tau signal, clone AT100 (68 kDa) (PHF-Tau; BE2M17 cells on fibronectin and matrigel): PHF-Tau signal appeared to be reduced | Tau expression, clone HT-7 (68, 64, 57 kDa) (PHF-Tau; BE2M17 cells on fibronectin): appeared to reduce Tau expression | PHF-Tau signal, clone AT180 (71 and 67 kDa) (PHF-Tau; [2]): weaker PHF-Tau signal | PHF-Tau signal, clone AT270 (66 and 63 kDa) (PHF-Tau; [2]): weaker PHF-Tau signal | PHF-Tau signal, clone AT270, cells on matrigel (PHF-Tau; BE2M17 cells on matrigel): only a slight difference between selenate treated and non-treated cells | anti-Tau signal, clone HT-7 (60 kDa) (PHF-Tau; SY5Y cells on fibronectin): weaker signal for anti-Tau | PHF-Tau signal, clone AT270 (70 kDa) (PHF-Tau; SY5Y cells on gelatin and fibronectin): weaker PHF-Tau signal | p70S6K phosphorylation on Thr389 (p70S6K): unaffected | PP2A phosphatase activity, pNPP as substrate ([1]; 5 mM of each selenium compound): clear boost in phosphatase activity | PP2A phosphatase activity (pNPP) ([1]; 0.05 U PP2A dimer, 30 min at 37° C., sodium selenate 5 mM, okadaic acid 500 nM): nearly tripled
